# Data as given in US12264185B2, “Stabilized BCL9 peptides for treatment of aberrant Wnt signaling” (WntRx Pharmaceuticals Inc., priority 2015, dated 2025).
# pIC50: −log10 of the molar value. Read-outs that look alike come from different tables or passages of the source.
# What was measured:
# JAK/STAT = JAK/STAT transcription assay (SIE-bla ME-180 cell line); type: cell-based
# Excerpt: (§1) In these assays, the trifluoroacetic salt form of WX-024 was used.
# CT26 cells = assay: CT26 syngeneic mouse model of colon cancer (Balb/c); type: in vivo, mice
# Method: The syngeneic mouse model of colon cancer using CT26 was then assessed. Male Balb/c mice were injected subcutaneously in the right flank with 5×10^4 CT26 cells each at approximately 5 weeks of age. […] Eight mice were included in each treatment group.
# The whole blood was taken from each mouse. Lymphocytes were purified from the blood samples by Ficoll, and the cells were stained with fluorescent anti-CD4 antibody. Data were measured by flow cytometry.
# As described above, the whole blood was taken from each mouse. Lymphocytes were purified from blood by Ficoll, and the cells were stained with fluorescent anti-CD8 antibody. Data were measured by flow cytometry.
# To further assess whether WX-024 is capable of modulating a tumor microenvironment, tumor and blood samples were collected in anticoagulation tubes at the end of the study. Single cells separation was performed and then cells were stained for FACS analysis. For cell surface staining, CD45-PerCP-Cy5, CD4-FITC, CD8-PE-Cy7, and CD25-PE were used. For intranuclear staining, cells were permeabilized overnight and then stained with Foxp3-APC for 60 minutes.
# The in vivo efficacy of WX-035 in treating a cancer was assessed in a syngeneic mouse model, following the procedures described in Example 5.3. Trametinib, a known MEK inhibitor, was used as a comparison. Briefly, balb/c mice were inoculated with CT26 and treatment started when tumor volume reached to about 100 mm^3. The mice were then divided into three groups and began administered with a vehicle, 40 mg/kg WX-035, or 1 mg/kg trametinib for 7 consecutive days.
# At the end of the study described in Example 9.2, a tumor sample from each mouse was collected to assess the effect of WX-035 in modulating T cell activation. The FACS analysis of each tumor sample was performed following the procedure described in Example 5. A shown in FIG. 36A, treatment with WX-035 reduced the total amount of CD45^+ cells. […] Likewise, Foxp3^+ CD25^+ T cells were reduced by WX-035 treatment (FIG. 36C). […] Furthermore, by increasing the ratio of cytotoxic T cells over regulatory T cells, WX-035 may induce a microenvironment that favors an immune reaction beneficial for tumor treatment. Of note, the samples collected from this experiment were also assessed for LGR5 expression.
# Colo320DM tumor cells = assay: Colo320DM colon cancer xenograft model in BALB/c nude mice; type: in vivo; conditions: for tumor volume (mean±standard error of mean) / tumor volume smaller than vehicle-treated group: Day 14
# Method: Based on the favorable PK profile of WX-024 in mice, as described above, the efficacy of WX-024 was investigated in a mouse xenograft colon cancer model. The Colo320DM colon cancer model in BALB/c nude mice was employed, in which Colo320DM cells are injected subcutaneously into BALB/c nude mice.
# Colo320DM tumor cells (ATCC) were cultured in RPMI1640 medium (GIBCO, Cat #31800022) supplemented with 10% heat-inactivated fetal bovine serum at 37° C. Harvesting of Colo320DM cells was done when cells were growing in an exponential growth phase. Female BALB/c nude mice (Shanghai Laboratory Animal Center) were used for the study at 6-8 weeks of age. Animals had free access to water and irradiation sterilized food throughout the study period. Each mouse (n=16) was inoculated subcutaneously in the right flank region with 5×10^6 Colo320DM tumor cells in 0.1 mL of PBS. Tumors were allowed to develop for 14 days after inoculation, at which time the mean tumor size was 156.78 mm^3. During the study, the care and use of animals was conducted in accordance with the Association for Assessment and Accreditation of Laboratory Animal Care (AAALAC). Following inoculation of tumor cells, animals were checked daily for morbidity and mortality. The body weight of each animal was monitored throughout the study.
# 4% ethanol+8% Tween 80+88% 10 mM PBS was used as a vehicle. All treatments were administered once daily. The WX-024 solution was dissolved in pure DMSO and then diluted with sterile water. The dosing volume was adjusted for body weight such that the dosing volume for each animal was 0.05 mL/10 g of body weight for i.v. dosing. The treatment period was 14 days.
# All treatments were begun as daily i.v. dosing. […] The injection method was changed to i.p. injection at Day 7 for the 10 mg/kg and 15 mg/kg groups. Dosing via i.p. injection (with the dosing volume adjusted to 0.1 ml/10 g) was maintained for the 10 and 15 mg/kg groups from Day 7 of the treatment period onwards, and the body weight of these animals stabilized.
# Tumor volumes were measured in two dimensions using a caliper at Days 0, 3, 5, 7, 9, 11, 14 of the treatment period (all dosing starting after 14 days of tumor development). The volume of the tumor was measured using the equation: V=0.5 a×b^2, wherein a and b are the long and short diameters of the tumor, respectively. Tumor volumes are expressed in mm^3. At the end of the study (i.e., following 22 days of treatment) the tumor mass weight was measured.
# At the conclusion of the Colo320DM model, tumor and intestinal samples were collected, fixed in formalin, and imbedded in paraffin using standard techniques. Four μm-thick section of tissue were prepared for immunohistochemistry (IHC) staining. The tissue sections were deparaffinized and rehydrated via sequential washing with xylene, graded ethanol and phosphate-buffered saline (PBS). Following deparaffinization and rehydration, the tissue sections were subjected to high temperature-induced epitope retrieval in target retrieval solution (10 mM citrate buffer; pH 6.0).
# Antibody binding was detected using an UltraVision Quanto Detection System (Thermo, Cat #TL-060-QHD) kit following the manufacturer's instructions. The sections were treated with Hydrogen Peroxide Block and Ultra V Block (provided in the kit) and then incubated with primary antibody overnight at 4° C.: CD44 (Abcam, Cat #ab157107 diluted 1:500), Axin (LSBio, Rabbit IgG, Cat #LS-B7029, Lot #51907, Stock Conc.: 1000 ug/ml), or VEGFA (VEGFA: LS Bio, Rabbit IgG, Cat #LS-B10263, Lot #65323, Stock Conc.: 1000 ug/ml). Rabbit IgG replaced the primary antibody in the negative control. All sections were counterstained with hematoxylin, dehydrated and mounted. IHC images were taken with an Olympus CKX31SF reverse microscope.
# TNF-alpha/JNK = TNF-alpha/JNK transcription assay (AP1-bla ME-180 cell line); type: cell-based
# Excerpt: as §1
# [1] = 20 mg/kg, after 2 weeks of daily dosing
structure (smiles),measurement,setting,value
"CC[C@H](C)[C@@H]1NC(=O)[C@@](C)(NC(=O)[C@H](CCCNC(=N)N)NC(=O)[C@H](CC(C)C)NC(=O)[C@@H](NC(=O)[C@H](CCC(N)=O)NC(=O)[C@H](CC(C)C)NC(C)=O)[C@@H](C)O)CCCC=CCCC[C@@](C)(C(=O)N[C@@H](CC(C)C)C(=O)N[C@@H](Cc2ccc3ccccc3c2)C(N)=O)NC(=O)[C@H](CCCNC(=N)N)NC(=O)[C@H](CCC(N)=O)NC1=O [WX-024, LQTLRXaa1IQRXaa2L]",pIC50,"JAK/STAT; Example 4.5, read-out: IC50, JAK/STAT transcription assay",< 5.00
same,pIC50,"JAK/STAT; summary, Example 6, read-out: IC50, JAK/STAT reporter assay",< 7.00
same,tumor volume over time compared to vehicle,"CT26 cells; 20 mg/kg i.p. daily, 14 days",substantially lower
same,tumor growth inhibition (TGI),"CT26 cells; 20 mg/kg i.p. daily, after 3 days of dosing",89.2%
same,tumor growth inhibition (TGI),"CT26 cells; 20 mg/kg i.p. daily, after 12 days of dosing",70.0%
same,active β-catenin expression in tumors,"CT26 cells; 20 mg/kg, 14 days",capable of suppressing active β-catenin expression in tumors
same,CD4+ T cell counts in blood,CT26 cells; [1],increase
same,CD8+ T cell counts in blood,CT26 cells; [1],increase
same,regulatory T cells in CD4+ T cell populations in tumor,"CT26 cells; 20 mg/kg, end of study",significantly reduced
same,effect on body weight,Colo320DM tumor cells; 5 mg/kg i.v. throughout the study,without an apparent effect on body weight
same,tumor volume (mean±standard error of mean),Colo320DM tumor cells; 5 mg/kg,2039±373.29 mm^3
same,tumor volume (mean±standard error of mean),Colo320DM tumor cells; 10 mg/kg (i.v. then i.p. from Day 7),1370±114.39 mm^3
same,intestinal morphology,"Colo320DM tumor cells; 10 mg/kg or 15 mg/kg, 22 days",maintained
same,tumor volume smaller than vehicle-treated group,Colo320DM tumor cells; 10 mg/kg,44.9%
same,tumor volume (mean±standard error of mean),Colo320DM tumor cells; 15 mg/kg (i.v. then i.p. from Day 7),1157.6±99.04 mm^3
same,average body weight loss compared to vehicle,"Colo320DM tumor cells; 15 mg/kg i.v. daily, after 3 days of treatment",approximately 11%
same,Axin 2 staining of intestine,"Colo320DM tumor cells; 15 mg/kg, 22 days",decreased Axin 2 staining
same,CD44 staining of tumor,"Colo320DM tumor cells; 15 mg/kg, 22 days",decrease in CD44 staining
same,tumor volume smaller than vehicle-treated group,Colo320DM tumor cells; 15 mg/kg,53.2%
same,tumor mass weight,"Colo320DM tumor cells; 10 or 15 mg/kg, 22 days of treatment",substantially less than tumor mass of vehicle-treated mice
same,"IC50, preliminary dose-response correlation with predicted tumor size",Colo320DM tumor cells; Colo320DM xenograft,12.69 mg/kg
same,VEGFA expression in tumors,Colo320DM tumor cells; immunohistochemistry,capable of suppressing VEGFA expression in tumors
same,IC50,"TNF-alpha/JNK; AP1-bla ME-180, TNF-alpha stimulation, trifluoroacetic salt form, read-out: IC50 (nM), TNP-alpha/JNK pathway",> 1000 nM
same,pIC50,"TNF-alpha/JNK; Example 4.5, read-out: IC50, TNF-alpha/JNK transcription assay",< 5.00
same,pIC50,"TNF-alpha/JNK; summary, Example 6, read-out: IC50, TNF-α/JNK reporter assay",< 7.00
